≈ marks a conversion by molar mass, not a printed value.
How the values were obtained:
[1] = n-octanol and aqueous buffer solution of pH 8.1; cited from earlier work
[2] = cited from earlier work
[3] = Determination of solubility in artificial gastric juice; type: physicochemical; conditions: 2 hours; for Solubility: artificial gastric juice, 37° C., pH 1.2
Method: Excess of itraconazole from Example 1 and conventional itraconazole prepared without dissolution-induced drying were added to artificial gastric juice of pH 1.2 and shaken at 37° C. for 2 hours, respectively. Each of the mixture were filtered through a membrane filter with pore diameter of […] and each of the filtrate was subjected to high-performance liquid chromatography, thereby obtaining gastric juice solubility.

Solubility relative to itraconazole without dissolution-induced drying ([3]; artificial gastric juice pH 1.2, 37° C.) [times]	Solubility [3] [µg/mL]	Compound	log partition coefficient [1]	Solubility in water [2]
–	–	CCC(C)n1ncn(-c2ccc(N3CCN(c4ccc(OCC5COC(Cn6cncn6)(c6ccc(Cl)cc6Cl)O5)cc4)CC3)cc2)c1=O (racemic) [Itraconazole, itraconazole]	5.66	less than 1 μg/ml
62	218.6 (≈ 310 µM)	CCC(C)n1ncn(-c2ccc(N3CCN(c4ccc(OCC5COC(Cn6cncn6)(c6ccc(Cl)cc6Cl)O5)cc4)CC3)cc2)c1=O (centres unmarked) [Itraconazole of Example 1, itraconazole]	–	–
–	3.5 (≈ 4.96 µM)	CCC(C)n1ncn(-c2ccc(N3CCN(c4ccc(OCC5COC(Cn6cncn6)(c6ccc(Cl)cc6Cl)O5)cc4)CC3)cc2)c1=O (centres unmarked) [The conventional itraconazole without dissolution-induced dr]	–	–

Reference: patent publication US6346533B1, “Intraconazole exhibiting an improved solubility, a method of preparing the same and a pharmaceutical composition for oral administration comprising the same” (Dong-A Pharmaceutical Co., Ltd., priority 1997, dated 2002)
